Reference: ChEMBL document CHEMBL3414448, “Advances in the discovery of novel antimicrobials targeting the assembly of bacterial cell division protein FtsZ” (Eur J Med Chem, 2015)
In brackets after ≈: the same amount, converted by molar mass.

What was measured:
[1] = tested on: Bacillus subtilis; test: Antimicrobial activity against Bacillus subtilis 168; type: functional
[2] = tested on: Staphylococcus aureus; test: Antimicrobial activity against methicillin-sensitive Staphylococcus aureus ATCC 29213; type: functional
[3] = tested on: Enterococcus faecium; test: Antimicrobial activity against ampicillin-resistant and levofloxacin-resistant Enterococcus faecium 12160560; type: functional
[4] = tested on: Enterococcus faecalis; test: Antimicrobial activity against Enterococcus faecalis ATCC 29212; type: functional
[5] = tested on: Streptococcus pneumoniae; test: Antimicrobial activity against Streptococcus pneumoniae ATCC 49619; type: functional
[6] = tested on: Acinetobacter baumannii; test: Antimicrobial activity against multidrug-resistant Acinetobacter baumannii 12159796; type: functional
[7] = tested on: Pseudomonas aeruginosa; test: Antimicrobial activity against Pseudomonas aeruginosa ATCC 27853; type: functional
[8] = tested on: Enterobacter cloacae; test: Antimicrobial activity against multidrug-resistant Enterobacter cloacae 12161389; type: functional
[9] = tested on: Escherichia coli; test: Antimicrobial activity against Escherichia coli ATCC 35218; type: functional
[10] = tested on: Klebsiella pneumoniae; test: Antimicrobial activity against ESBL producing Klebsiella pneumoniae ATCC 700603; type: functional
[11] = molecular target: T1, Cell division protein FtsZ (Escherichia coli K-12, UniProt P0A9A6); test: Inhibition of Escherichia coli FtsZ
T1 sequence (P0A9A6 whole entry): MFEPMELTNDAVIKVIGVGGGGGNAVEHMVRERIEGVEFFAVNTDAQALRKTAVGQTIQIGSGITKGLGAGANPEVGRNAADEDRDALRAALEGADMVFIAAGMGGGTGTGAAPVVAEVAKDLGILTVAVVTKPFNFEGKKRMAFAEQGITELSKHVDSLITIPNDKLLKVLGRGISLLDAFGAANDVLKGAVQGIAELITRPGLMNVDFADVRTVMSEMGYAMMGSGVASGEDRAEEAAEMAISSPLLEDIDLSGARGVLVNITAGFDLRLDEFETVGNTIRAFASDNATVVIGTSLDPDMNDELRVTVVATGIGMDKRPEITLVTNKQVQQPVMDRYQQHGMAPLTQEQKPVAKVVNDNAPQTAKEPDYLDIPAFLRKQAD

[12] = molecular target: T1, Cell division protein FtsZ; test: Inhibition of Escherichia coli FtsZ GTPase activity
[13] = tested on: Staphylococcus aureus; test: Antimicrobial activity against Staphylococcus aureus UAMS1; type: functional
[14] = tested on: Staphylococcus aureus; test: Antimicrobial activity against community acquired methicillin-resistant Staphylococcus aureus USA300-LAC; type: functional
[15] = tested on: Escherichia coli; test: Antimicrobial activity against Escherichia coli; type: functional
[16] = tested on: Staphylococcus aureus; test: Antimicrobial activity against Staphylococcus aureus; type: functional
[17] = tested on: Mycobacterium tuberculosis; test: Antimicrobial activity against Mycobacterium tuberculosis; type: functional
[18] = molecular target: T2, Cell division protein FtsZ (Mycobacterium tuberculosis, UniProt P9WN95); test: Binding affinity to Mycobacterium tuberculosis FtsZ
T2 sequence (P9WN95 whole entry): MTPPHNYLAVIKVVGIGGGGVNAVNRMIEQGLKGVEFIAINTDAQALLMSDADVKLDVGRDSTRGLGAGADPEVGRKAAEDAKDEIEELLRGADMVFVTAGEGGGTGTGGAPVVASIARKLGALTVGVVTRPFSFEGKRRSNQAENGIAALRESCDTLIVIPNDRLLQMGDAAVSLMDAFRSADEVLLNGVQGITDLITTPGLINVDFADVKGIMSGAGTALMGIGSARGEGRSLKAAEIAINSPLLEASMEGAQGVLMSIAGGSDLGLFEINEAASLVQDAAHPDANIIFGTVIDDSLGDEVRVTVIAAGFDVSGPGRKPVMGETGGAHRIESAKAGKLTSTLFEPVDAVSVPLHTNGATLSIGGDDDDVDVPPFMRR

[19] = Inhibition of FtsZ (unknown origin) assessed as reduction in enzyme GTPase activity
[20] = molecular target: T1, Cell division protein FtsZ; test: Inhibition of Escherichia coli FtsZ polymerization
[21] = tested on: Bacillus subtilis; test: Antimicrobial activity against Bacillus subtilis relative to control; type: functional
[22] = tested on: Escherichia coli; test: Antimicrobial activity against Escherichia coli relative to control; type: functional
[23] = tested on: Staphylococcus aureus; test: Antimicrobial activity against methicillin-resistant Staphylococcus aureus; type: functional
[24] = tested on: Bacillus subtilis; test: Antimicrobial activity against Bacillus subtilis; type: functional
[25] = tested on: Staphylococcus; test: Antimicrobial activity against Staphylococcus; type: functional
[26] = Half life in staphylococcal growth media
[27] = Half life in 100% filtered mouse serum; type: ADME
[28] = tested on: Pseudomonas fluorescens; test: Antimicrobial activity against Pseudomonas fluorescens; type: functional
[29] = tested on: Enterococcus faecalis; test: Antimicrobial activity against Enterococcus faecalis; type: functional
[30] = tested on: Enterococcus faecium; test: Antimicrobial activity against Enterococcus faecium; type: functional
[31] = Inhibition of FtsZ (unknown origin) assessed as reduction in enzyme assembly

Q: With O=C(Oc1cc(OC(=O)c2cc(O)c(O)c(O)c2)c2ccccc2c1)c1cc(O)c(O)c(O)c1 as the molecule, how does the MIC [1] read?
A: 64 µg/mL (≈ 138 µM)

Q: What about the MIC [2] of the same molecule?
A: 32 µg/mL (≈ 68.9 µM)

Q: And the MIC [3]?
A: 64 µg/mL (≈ 138 µM)

Q: And the MIC [4]?
A: 64 µg/mL (≈ 138 µM)

Q: What about the MIC [5] of the same molecule?
A: 64 µg/mL (≈ 138 µM)

Q: And the MIC [6]?
A: 64 µg/mL (≈ 138 µM)

Q: What about the MIC [7] of the same molecule?
A: 128 µg/mL (≈ 276 µM)

Q: And the MIC [8]?
A: 128 µg/mL (≈ 276 µM)

Q: What about the MIC [9] of the same molecule?
A: 128 µg/mL (≈ 276 µM)

Q: What about the MIC [10] of the same molecule?
A: 128 µg/mL (≈ 276 µM)

Q: For CN(C)CCNc1nc(/C=C/c2ccc(Cl)cc2)nc2cc3ccccc3cc12, which IC50 [11] is on record?
A: 12 µM

Q: With COc1cc(C/C=C(/Cl)Cc2cc(O)cc(O)c2)c(OC)cc1Cl as the molecule, how does the IC50 [12] read?
A: 37 µM

Q: And the MIC [13]?
A: 1 µg/mL (≈ 2.71 µM)

Q: What about the MIC [14] of the same molecule?
A: 1 µg/mL (≈ 2.71 µM)

Q: Which MIC [15] does the source give for CC(C)c1c(O)ccc2c1CC[C@H]1C(C)(C)CCC[C@]21C [TOTAROL] here?
A: > 400 µg/mL

Q: And the MIC [16]?
A: 1.5 µg/mL (≈ 5.24 µM)

Q: And the MIC [17]?
A: 16 µg/mL (≈ 55.9 µM)

Q: What about the Kd [18] of the same molecule?
A: 11 µM

Q: What about the IC50 [19] of the same molecule?
A: 40.8 µM

Q: And the MIC [1]?
A: 0.6 µg/mL (≈ 2.09 µM)

Q: Which IC50 [12] does the source give for O=C/C=C/c1ccccc1 [CINNAMALDEHYDE] here?
A: 5.81 µM

Q: And the IC50 [20]?
A: 6.86 µM

Q: And the MIC [21]?
A: 500 µg/mL (≈ 3780 µM)

Q: And the MIC [22]?
A: 1000 µg/mL (≈ 7570 µM)

Q: What about the MIC [23] of the same molecule?
A: 0.25 µg/mL (≈ 1.89 µM)

Q: What about the MIC [24] of the same molecule?
A: 0.5 µg/mL (≈ 3.78 µM)

Q: And the MIC [15]?
A: 1 µg/mL (≈ 7.57 µM)

Q: For NC(=O)c1c(F)ccc(OCc2nc3cc(Cl)cnc3s2)c1F, which MIC [25] is on record?
A: 0.5 µg/mL (≈ 1.41 µM)

Q: Which half-life [26] does the source give for CN1CCC(C(=O)NC(=O)c2c(F)ccc(OCc3nc4cc(Cl)cnc4s3)c2F)CC1 here?
A: 8.2 h

Q: What about the half-life [27] of the same molecule?
A: 3.4 min

Q: What does the source list for COc1c(OC(C)=O)ccc(/C=N/c2c(C(C)C)cccc2C(C)C)c1[N+](=O)[O-]?
A: MIC [24]: 6.25 µg/mL (≈ 15.7 µM); MIC [15]: 6.25 µg/mL (≈ 15.7 µM); MIC [16]: 6.25 µg/mL (≈ 15.7 µM); MIC [28]: 6.25 µg/mL (≈ 15.7 µM)

Q: Which results are given for O=C(Oc1cc(OC(=O)c2cc(O)cc(O)c2)c2ccccc2c1)c1cc(O)c(O)c(O)c1?
A: MIC [1]: 16 µg/mL (≈ 35.7 µM); MIC [2]: 16 µg/mL (≈ 35.7 µM); MIC [3]: 32 µg/mL (≈ 71.4 µM); MIC [4]: 32 µg/mL (≈ 71.4 µM); MIC [5]: 32 µg/mL (≈ 71.4 µM); MIC [6]: 64 µg/mL (≈ 143 µM); MIC [7]: 64 µg/mL (≈ 143 µM); MIC [8]: 128 µg/mL (≈ 285 µM); MIC [9]: 128 µg/mL (≈ 285 µM); MIC [10]: 128 µg/mL (≈ 285 µM)

Q: For O=C1C[C@@H](c2ccccc2)Oc2c(Cc3ccccc3O)c(O)c(Cc3ccccc3O)c(O)c21 [DICHAMANETIN], which IC50 [12] is on record?
A: 12.5 µM

Q: What about the MIC [24] of the same molecule?
A: 5.01 µg/mL (≈ 10.7 µM)

Q: And the MIC [16]?
A: 0.8 µg/mL (≈ 1.71 µM)

Q: With COC(=O)CC1Cc2cc3cc(OC)c(-c4c(OC)cc5cc6c(c(O)c5c4O)C(=O)OC(CC(=O)OC)C6)c(O)c3c(O)c2C(=O)O1 (centres undefined) [VIRIDITOXIN] as the molecule, how does the IC50 [12] read?
A: 10.6 µM

Q: And the IC50 [20]?
A: 12.4 µM

Q: What about the MIC [16] of the same molecule?
A: 4 µg/mL (≈ 6.04 µM)

Q: And the MIC [29]?
A: 2 µg/mL (≈ 3.02 µM)

Q: What about the MIC [30] of the same molecule?
A: 2 µg/mL (≈ 3.02 µM)

Q: What does the source list for COc1ccc2cc3[n+](cc2c1OC)CCc1cc2c(cc1-3)OCO2 [BERBERINE]?
A: IC50 [31]: 10 µM; IC50 [19]: 16 µM
